Assay: Compound was tested for inhibition of Protein tyrosine phosphatase (PTP1B)

Row | IC50 | Kd | Compound
1 | 60 µM | 25 µM | O=c1c(O)c(-c2ccccc2)c1=O
2 | > 300 µM | 100 µM | O=Cc1ccccn1 [2-PYRIDINECARBOXALDEHYDE]
3 | > 300 µM | 150 µM | O=CCCc1ccccc1 [DIHYDROCINNAMALDEHYDE]
